Data published in PubChem BioAssay (NCI).
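Cultured in 96-well plates, cells were exposed to test compound for 48 hours across five concentrations. The concentration for full growth arrest is given as TGI.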

Legend:
Experiment in all cases: NCI-60 cell line screen, 48 h
786-0 renal = system: 786-0 renal
A498 renal = system: A498 renal
A549 NSCLC = system: A549 NSCLC
ACHN renal = system: ACHN renal
CCRF-CEM leukemia = system: CCRF-CEM leukemia
COLO 205 colon = system: COLO 205 colon
DLD-1 colon = system: DLD-1 colon
DMS 273 small cell lung = system: DMS 273 small cell lung
EKVX NSCLC = system: EKVX NSCLC
HCC-2998 colon = system: HCC-2998 colon
HCT-116 colon = system: HCT-116 colon
HCT-15 colon = system: HCT-15 colon
HL-60(TB) leukemia = system: HL-60(TB) leukemia
HOP-18 NSCLC = system: HOP-18 NSCLC
HOP-62 NSCLC = system: HOP-62 NSCLC
HOP-92 NSCLC = system: HOP-92 NSCLC
HT29 colon = system: HT29 colon
IGROV1 ovarian = system: IGROV1 ovarian
K-562 leukemia = system: K-562 leukemia
KM12 colon = system: KM12 colon
KM20L2 colon = system: KM20L2 colon
LOX IMVI melanoma = system: LOX IMVI melanoma
LXFL 529 NSCLC = system: LXFL 529 NSCLC
M14 melanoma = system: M14 melanoma
M19-MEL melanoma = system: M19-MEL melanoma
MALME-3M melanoma = system: MALME-3M melanoma
MOLT-4 leukemia = system: MOLT-4 leukemia
NCI-H226 lung = system: NCI-H226 lung
NCI-H23 lung = system: NCI-H23 lung
NCI-H460 lung = system: NCI-H460 lung
NCI-H522 lung = system: NCI-H522 lung
OVCAR-3 ovarian = system: OVCAR-3 ovarian
OVCAR-4 ovarian = system: OVCAR-4 ovarian
OVCAR-5 ovarian = system: OVCAR-5 ovarian
OVCAR-8 ovarian = system: OVCAR-8 ovarian
RPMI-8226 leukemia = system: RPMI-8226 leukemia
RXF 393 renal = system: RXF 393 renal
SF-268 CNS = system: SF-268 CNS
SF-295 CNS = system: SF-295 CNS
SF-539 CNS = system: SF-539 CNS
SK-MEL-2 melanoma = system: SK-MEL-2 melanoma
SK-MEL-28 melanoma = system: SK-MEL-28 melanoma
SK-OV-3 ovarian = system: SK-OV-3 ovarian
SN12C renal = system: SN12C renal
SNB-19 CNS = system: SNB-19 CNS
SNB-78 CNS = system: SNB-78 CNS
SR leukemia = system: SR leukemia
SW-620 colon = system: SW-620 colon
TK-10 renal = system: TK-10 renal
U251 CNS = system: U251 CNS
UACC-257 melanoma = system: UACC-257 melanoma
UO-31 renal = system: UO-31 renal
XF 498 CNS = system: XF 498 CNS
CAKI-1 renal = system: CAKI-1 renal
DMS 114 small cell lung = system: DMS 114 small cell lung
SK-MEL-5 melanoma = system: SK-MEL-5 melanoma
SNB-75 CNS = system: SNB-75 CNS
UACC-62 melanoma = system: UACC-62 melanoma

Measured: TGI

Cc1cn(C2CC(OC3CCCCO3)C(CO)O2)c(=O)[nH]c1=O (centres undefined)
> 100 µM: 786-0 renal | A498 renal | A549 NSCLC | ACHN renal | CCRF-CEM leukemia | COLO 205 colon | DLD-1 colon | DMS 273 small cell lung | EKVX NSCLC | HCC-2998 colon | HCT-116 colon | HCT-15 colon | HL-60(TB) leukemia | HOP-18 NSCLC | HOP-62 NSCLC | HOP-92 NSCLC | HT29 colon | IGROV1 ovarian | K-562 leukemia | KM12 colon | KM20L2 colon | LOX IMVI melanoma | LXFL 529 NSCLC | M14 melanoma | M19-MEL melanoma | MALME-3M melanoma | MOLT-4 leukemia | NCI-H226 lung | NCI-H23 lung | NCI-H460 lung | NCI-H522 lung | OVCAR-3 ovarian | OVCAR-4 ovarian | OVCAR-5 ovarian | OVCAR-8 ovarian | RPMI-8226 leukemia | RXF 393 renal | SF-268 CNS | SF-295 CNS | SF-539 CNS | SK-MEL-2 melanoma | SK-MEL-28 melanoma | SK-OV-3 ovarian | SN12C renal | SNB-19 CNS | SNB-78 CNS | SR leukemia | SW-620 colon | TK-10 renal | U251 CNS | UACC-257 melanoma | UO-31 renal | XF 498 CNS

[N-]=[N+]=Nc1cc(=O)n(-c2ccccc2)c2ccccc12
> 100 µM: 786-0 renal | A549 NSCLC | ACHN renal | CAKI-1 renal | CCRF-CEM leukemia | COLO 205 colon | DLD-1 colon | DMS 114 small cell lung | DMS 273 small cell lung | HCT-116 colon | HCT-15 colon | HL-60(TB) leukemia | HOP-18 NSCLC | HOP-62 NSCLC | HT29 colon | IGROV1 ovarian | K-562 leukemia | KM12 colon | LOX IMVI melanoma | LXFL 529 NSCLC | M14 melanoma | M19-MEL melanoma | MALME-3M melanoma | MOLT-4 leukemia | NCI-H226 lung | NCI-H23 lung | NCI-H460 lung | NCI-H522 lung | OVCAR-4 ovarian | OVCAR-5 ovarian | OVCAR-8 ovarian | RPMI-8226 leukemia | RXF 393 renal | SF-268 CNS | SF-295 CNS | SF-539 CNS | SK-MEL-2 melanoma | SK-MEL-28 melanoma | SK-MEL-5 melanoma | SK-OV-3 ovarian | SN12C renal | SNB-75 CNS | SR leukemia | SW-620 colon | TK-10 renal | U251 CNS | UACC-257 melanoma | UACC-62 melanoma | UO-31 renal

NC(CCC(=O)Nc1ccc(O)cc1)C(=O)O (centres undefined)
> 100 µM: 786-0 renal | A498 renal | A549 NSCLC | ACHN renal | CAKI-1 renal | CCRF-CEM leukemia | COLO 205 colon | DLD-1 colon | DMS 114 small cell lung | DMS 273 small cell lung | EKVX NSCLC | HCT-116 colon | HCT-15 colon | HL-60(TB) leukemia | HOP-18 NSCLC | HOP-62 NSCLC | HOP-92 NSCLC | HT29 colon | K-562 leukemia | KM12 colon | KM20L2 colon | LOX IMVI melanoma | LXFL 529 NSCLC | M14 melanoma | MALME-3M melanoma | MOLT-4 leukemia | NCI-H226 lung | NCI-H460 lung | NCI-H522 lung | OVCAR-3 ovarian | OVCAR-4 ovarian | OVCAR-5 ovarian | OVCAR-8 ovarian | RPMI-8226 leukemia | RXF 393 renal | SF-268 CNS | SK-MEL-2 melanoma | SK-MEL-28 melanoma | SK-MEL-5 melanoma | SK-OV-3 ovarian | SN12C renal | SNB-19 CNS | SNB-75 CNS | SNB-78 CNS | SR leukemia | SW-620 colon | TK-10 renal | U251 CNS | UACC-257 melanoma | UACC-62 melanoma | UO-31 renal | XF 498 CNS
